One data set deals with HCT116. Briefly: K-Ras Wnt synthetic lethal, HCT116 KrasSL. Conditions: Homo sapiens, HCT-116, read-out: HCT116 KrasSL % Inhibit. It is filed as cell-based. An excerpt:
(§1) Selected compounds of this invention were screened for K-Ras Wnt synthetic lethal, anti-angiogenic activity, Wnt pathway modulatory activity, insulin and GLP-1 secretion modulatory activity, GPR119 receptor agonist activity, mGlu2R antagonist activity, CGRP receptor antagonist activity, Apelin receptor agonist activity and hexokinase 2 inhibitory activity using the PD^2 and TD^2 Screening Panel (Eli Lilly & Company). See Lee, et al. (2011) J. Biomol. Screen. 16:588-602.

For another data set, the system named is Angio Tube Area. Briefly: Anti-angiogenic activity, Angio Tube Area. Format: cell-based. The following applies: read-out: Angio Tube Area % Inhibit.
Text: as §1

Another data set has as its system Wnt Pathway. Briefly: Wnt pathway modulatory activity, Osteo bCat. It is filed as cell-based.
Text: as §1

A further data set has as its target T1, hGPR119 (Homo sapiens, UniProt Q8TDV5).
T1 sequence (Q8TDV5 1-335): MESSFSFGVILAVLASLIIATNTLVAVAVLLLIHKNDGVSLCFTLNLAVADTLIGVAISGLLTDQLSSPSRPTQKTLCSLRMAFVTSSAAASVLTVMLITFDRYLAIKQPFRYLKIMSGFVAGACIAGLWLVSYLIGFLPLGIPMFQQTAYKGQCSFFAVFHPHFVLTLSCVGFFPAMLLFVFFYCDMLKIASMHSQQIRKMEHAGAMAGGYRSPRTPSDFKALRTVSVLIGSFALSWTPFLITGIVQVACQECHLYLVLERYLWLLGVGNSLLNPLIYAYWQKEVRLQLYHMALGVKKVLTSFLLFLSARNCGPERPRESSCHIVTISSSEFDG
Briefly: GPR119 receptor agonist, hGPR119 agonism. Conditions: @ 10 μM. It is filed as cell-based.
Text: as §1

In a further data set the target is hMGLUR2 (Homo sapiens, UniProt Q14416). Briefly: mGlu2R antagonist, hMGLUR2. Format: cell-based.
Chain of hMGLUR2 (Q14416 19-872): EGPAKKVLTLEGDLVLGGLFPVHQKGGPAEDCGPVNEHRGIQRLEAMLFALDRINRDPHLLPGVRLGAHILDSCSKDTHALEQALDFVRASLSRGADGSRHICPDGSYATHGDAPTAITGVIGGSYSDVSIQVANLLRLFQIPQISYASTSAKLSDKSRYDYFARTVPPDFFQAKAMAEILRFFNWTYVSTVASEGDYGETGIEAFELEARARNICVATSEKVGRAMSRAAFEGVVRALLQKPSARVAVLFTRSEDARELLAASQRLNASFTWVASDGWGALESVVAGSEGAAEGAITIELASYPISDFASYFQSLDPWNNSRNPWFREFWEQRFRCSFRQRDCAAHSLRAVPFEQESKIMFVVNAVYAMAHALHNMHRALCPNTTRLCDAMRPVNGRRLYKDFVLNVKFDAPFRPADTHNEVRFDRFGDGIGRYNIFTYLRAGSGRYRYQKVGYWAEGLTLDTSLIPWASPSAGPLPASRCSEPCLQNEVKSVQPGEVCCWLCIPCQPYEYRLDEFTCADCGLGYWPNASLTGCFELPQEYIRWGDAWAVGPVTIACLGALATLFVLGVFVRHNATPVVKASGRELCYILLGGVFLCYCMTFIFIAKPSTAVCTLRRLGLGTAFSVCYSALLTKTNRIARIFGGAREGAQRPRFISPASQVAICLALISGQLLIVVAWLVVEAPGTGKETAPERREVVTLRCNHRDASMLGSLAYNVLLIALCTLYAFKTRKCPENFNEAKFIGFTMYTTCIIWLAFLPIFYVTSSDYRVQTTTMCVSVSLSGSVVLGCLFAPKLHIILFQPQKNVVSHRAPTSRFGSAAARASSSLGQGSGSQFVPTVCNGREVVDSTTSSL
Text: as §1

In another data set the test system is hNCI-H716. The experiment in a line: hNCI basal LDH secretion. Conditions: read-out: Primary CRC (EC50, μM) hNCI Basal. Format: cell-based. How it is done:
(§2) In light of the above results, additional compounds (Table 7) were prepared and phenotypic assays were carried out using hNCI-H716 and mSTC-1 cell lines to monitor GLP-1 secretion (single point (SP) and concentration response curves (CRC)) (Table 8), as well as a secondary assay with pituitary cells (Table 9).

In another data set the test system is Pituitary Cells. Briefly: Secondary assay, pituitary cells growth hormone secretion. It is filed as cell-based. The following applies: @ 3.3 μM. How it is done:
as §2

A short description of data set [1]: Plasma compound exposure after oral dosing in mice. Conditions: male, C57BL/6, mouse, plasma, oral 100 mg/kg, 30 minutes post-dose, read-out: mean (±standard deviation) plasma levels. It is filed as in vivo, Mice (male C57BL/6). Here is the method:
Mice (male C57BL/6, 8-10 weeks of age) were fasted overnight by being placed in a clean cage without food. The next day, all mice were weighed and assigned to groups of similar body weights. Test compounds were formulated in 1% HEC, 0.25% TWEEN 80, 0.05% antifoam (vehicle control). Compounds 11ls and llu were orally dosed (100 mg/kg) and cardiac sticks were done on CO2 euthanized mice at 30 minutes post-dose. Blood (500+μL whole blood) from the cardiac stick was placed in chilled EDTA-plasma tubes with inhibitors, DPP4 inhibitor (5 μL/500 μL blood) and aprotinin (bovine lung, […]/500 μL blood), and stored on ice. Plasma was separated by centrifugation and aliquoted for compound exposure to total GIP and GLP-1 (X-36 amide). Plates for compound exposure were analyzed for absorption, distribution, metabolism, and excretion, while conventional kits were used for GLP-1 (x-36) amide (Mesoscale) and GIP (Millipore) analyses.

Values joined by “and” are separate entries in the source; they are usually repeats but may differ in a detail not shown here. Equal values may be shown once.

What is called EC50 is the midpoint of the concentration-response curve. Consider `CC1(C)c2c([nH]c3ccc(Cl)cc23)C2C=CC1C2` (stereo not drawn) [Compound 11s], for which the inhibition at 0.2 µM in the data set on HCT116 (@ 0.2 μM) is 2.3%. For the same molecule, the inhibition at 2 µM in the data set on HCT116 (@ 2 μM) was -38%; in the data set with Angio Tube Area (@ 2 μM), 21.7%. In addition, the inhibition at 20 µM in the data set on HCT116 (@ 20 μM) was found to be 96.4%. In addition, in the data set on Angio Tube Area (@ 10 μM), the inhibition at 10 µM was determined as 21.8%. For the same molecule, the “Osteo bCat % Stimulation” value in the data set on Wnt Pathway (@ 2 μM) worked out at 1.3%; in the data set on Wnt Pathway (@ 10 μM), 9.3%. For the same molecule, the “hGPR119 agonism % Stimulation” value on hGPR119 is −5.1%. Besides, at hMGLUR2, the inhibition at 50 µM was -20.4%. The EC50 in the data set with hNCI-H716 was more than 40 µM. The “Pituitary Cells (Growth Hormone Secretion, % Stimulation)” value with Pituitary Cells was −10.0% and −17.7% and −18.6%. The concentration at 30 min in data set [1] is 412 ± 88.2 ng/mL.

These data come from patent publication US9598365B2, “Method for synthesizing cycloalkanyl[b]indoles, cycloalkanyl[b]benzofurans, cycloalkanyl[b]benzothiophenes, compounds and methods of use” (Trustees of Dartmouth College, priority 2012, dated 2017).
